# Counter-ions that a name gives are not always drawn.
# Test system: ISG reporter activity in THP1-Dual cell
# Assay: ISG reporter assay
# Format: cell-based
# Details: Homo sapiens, compounds incubated with cells for 24 hours, QUANTI-Blue, absorbance at 655 nm
# Protocol: [Worded in the source for another cell line; this cell line is reported under the same test.] THP1-Blue cells (cat. no. thp-isg) were purchased from InvivoGen (Sandiago, USA). Penicillin—streptomycin (cat. no. L0022-100), Fetal Bovine Serum (FBS) (cat. no. S1480-500) and Roswell Park Memorial Institute (RPMI) 1640 media (cat. L0498-500) were purchased from biowest (Nuaille, France). Zeocin (cat. no. ant-zn-OS) and Normocin (cat. no. ant-nr-1) were purchased from InvivoGen (Sandiago, USA). QUANTI-Blue™ (cat. no. rep-qbs) was purchased from InvivoGen. THP1-Blue cells were cultured in RPMI 1640 medium with 10% heat-inactivated FBS, 100 μg/ml Normocin, 100 μg/ml Zeocin and 100 U/ml-100 μg/ml penicillin-streptomycin. The cells were incubated at 37° C. in a humidified atmosphere of 5% CO2.
# THP1-Blue cells were seeded at 5×10^4 cells/well (90 μl/well). 10 μl of compounds were added to the cells and incubated for 24 hours. 20 μl of cell culture supernatant was dispensed new 96-well plate (cat. no. 30096) with 180 μl of QUANTI-Blue™ solution and incubated for 15 minutes at 37° C. The absorbance was measured by Varioskan Lux (Thermofisher Scientific, USA) at 655 nm.
row,EC50 [nM],Compound
1,< 50,"CCn1nc(C)cc1C(=O)Nc1nc2cc(C(N)=O)cc(OC)c2n1C/C=C/Cn1c(NC(=O)c2cc(C)nn2CC)nc2cc(C(N)=O)cc(OCC#CC3CCN(S(=O)(=O)N4CCOCC4)CC3)c21 [Example 27, (E)-1-(4-(5-carbamoyl-2-(1-ethyl-3-methyl-1H-pyrazole-5-carboxamido)-7-((3-(1-(morpholinosulfonyl)piperidin-4-yl)prop-2-yn-1-yl)oxy)-1H-benzo[d]imidazol-1-yl)but-2-en-1-yl)-2-(1-ethyl-3-methyl-1H-pyrazole-5-carboxamido)-7-methoxy-1H-benzo[d]imidazole-5-carboxamide]"
2,< 50,"CCn1nc(C)cc1C(=O)Nc1nc2cc(C(N)=O)cc(OC)c2n1C/C=C/Cn1c(NC(=O)c2cc(C)nn2CC)nc2cc(C(N)=O)cc(OCC#CC3CCN(S(=O)(=O)N4CCNCC4)CC3)c21 [Example 29, (E)-1-(4-(5-carbamoyl-2-(1-ethyl-3-methyl-1H-pyrazole-5-carboxamido)-7-((3-(1-(piperazin-1-ylsulfonyl)piperidin-4-yl)prop-2-yn-1-yl)oxy)-1H-benzo[d]imidazol-1-yl)but-2-en-1-yl)-2-(1-ethyl-3-methyl-1H-pyrazole-5-carboxamido)-7-methoxy-1H-benzo[d]imidazole-5-carboxamide hydrochloride]"
3,50 to 500,"CCn1nc(C)cc1C(=O)Nc1nc2cc(C(=O)NOC)cc(OC)c2n1C/C=C/Cn1c(NC(=O)c2cc(C)nn2CC)nc2cc(C(N)=O)cc(OCC#CCN3CCN(C(=O)OC(C)(C)C)CC3)c21 [Example 36, tert-butyl (E)-4-(4-((5-carbamoyl-2-(1-ethyl-3-methyl-1H-pyrazole-5-carboxamido)-1-(4-(2-(1-ethyl-3-methyl-1H-pyrazole-5-carboxamido)-7-methoxy-5-(methoxycarbamoyl)-1H-benzo[d]imidazol-1-yl)but-2-en-1-yl)-1H-benzo[d]imidazol-7-yl)oxy)but-2-yn-1-yl)piperazine-1-carboxylate]"
4,< 50,CCn1nc(C)cc1C(=O)Nc1nc2cc(C(N)=O)cc(OC)c2n1C/C=C/Cn1c(NC(=O)c2cc(C)nn2CC)nc2cc(C(N)=O)cc(OCC#CCN3CCN(C(=O)OC(C)(C)C)CC3)c21 [Example 37]
5,50 to 500,"CCn1nc(C)cc1C(=O)Nc1nc2cc(C(=O)NOC)cc(OC)c2n1C/C=C/Cn1c(NC(=O)c2cc(C)nn2CC)nc2cc(C(N)=O)cc(OCC#CCN3CCOCC3)c21 [Example 40, (E)-1-(4-(5-carbamoyl-2-(1-ethyl-3-methyl-1H-pyrazole-5-carboxamido)-7-((4-morpholinobut-2-yn-1-yl)oxy)-1H-benzo[d]imidazol-1-yl)but-2-en-1-yl)-2-(1-ethyl-3-methyl-1H-pyrazole-5-carboxamido)-N,7-dimethoxy-1H-benzo[d]imidazole-5-carboxamide]"

# The next lines start with the compound.
row,Compound,EC50 [nM]
1,"CCn1nc(C)cc1C(=O)Nc1nc2cc(C(N)=O)cc(OC)c2n1C/C=C/Cn1c(NC(=O)c2cc(C)nn2CC)nc2cc(C(N)=O)cc(OCC#CC3CCN(S(=O)(=O)N4CCCC4)CC3)c21 [Example 26, (E)-1-(4-(5-carbamoyl-2-(1-ethyl-3-methyl-1H-pyrazole-5-carboxamido)-7-((3-(1-(pyrrolidin-1-ylsulfonyl)piperidin-4-yl)prop-2-yn-1-yl)oxy)-1H-benzo[d]imidazol-1-yl)but-2-en-1-yl)-2-(1-ethyl-3-methyl-1H-pyrazole-5-carboxamido)-7-methoxy-1H-benzo[d]imidazole-5-carboxamide]",< 50
2,"CCn1nc(C)cc1C(=O)Nc1nc2cc(C(N)=O)cc(OC)c2n1C/C=C/Cn1c(NC(=O)c2cc(C)nn2CC)nc2cc(C(N)=O)cc(OCC#CC3CCN(S(=O)(=O)N4CCN(C(=O)OC(C)(C)C)CC4)CC3)c21 [Example 28, tert-butyl (E)-4-((4-(3-((5-carbamoyl-1-(4-(5-carbamoyl-2-(1-ethyl-3-methyl-1H-pyrazole-5-carboxamido)-7-methoxy-1H-benzo[d]imidazol-1-yl)but-2-en-1-yl)-2-(1-ethyl-3-methyl-1H-pyrazole-5-carboxamido)-1H-benzo[d]imidazol-7-yl)oxy)prop-1-yn-1-yl)piperidin-1-yl)sulfonyl)piperazine-1-carboxylate]",< 50
3,"CCn1nc(C)cc1C(=O)Nc1nc2cc(C(N)=O)cc(OC)c2n1C/C=C/Cn1c(NC(=O)c2cc(C)nn2CC)nc2cc(C(N)=O)cc(OCC#CC3CN(C(=O)OC(C)(C)C)C3)c21 [Example 30, tert-butyl (E)-3-(3-((5-carbamoyl-1-(4-(5-carbamoyl-2-(1-ethyl-3-methyl-1H-pyrazole-5-carboxamido)-7-methoxy-1H-benzo[d]imidazol-1-yl)but-2-en-1-yl)-2-(1-ethyl-3-methyl-1H-pyrazole-5-carboxamido)-1H-benzo[d]imidazol-7-yl)oxy)prop-1-yn-1-yl)azetidine-1-carboxylate]",< 50
4,"CCn1nc(C)cc1C(=O)Nc1nc2cc(C(N)=O)cc(OC)c2n1C/C=C/Cn1c(NC(=O)c2cc(C)nn2CC)nc2cc(C(N)=O)cc(OCC#CC3CCN(C(=O)OC(C)(C)C)C3)c21 (stereo not drawn) [Example 31, tert-butyl (E)-3-(3-((5-carbamoyl-1-(4-(5-carbamoyl-2-(1-ethyl-3-methyl-1H-pyrazole-5-carboxamido)-7-methoxy-1H-benzo[d]imidazol-1-yl)but-2-en-1-yl)-2-(1-ethyl-3-methyl-1H-pyrazole-5-carboxamido)-1H-benzo[d]imidazol-7-yl)oxy)prop-1-yn-1-yl)pyrrolidine-1-carboxylate]",< 50
5,"CCn1nc(C)cc1C(=O)Nc1nc2cc(C(N)=O)cc(OC)c2n1C/C=C/Cn1c(NC(=O)c2cc(C)nn2CC)nc2cc(C(N)=O)cc(OCC#CC3CCCN(C(=O)OC(C)(C)C)C3)c21 (stereo not drawn) [Example 32, tert-butyl (E)-3-(3-((5-carbamoyl-1-(4-(5-carbamoyl-2-(1-ethyl-3-methyl-1H-pyrazole-5-carboxamido)-7-methoxy-1H-benzo[d]imidazol-1-yl)but-2-en-1-yl)-2-(1-ethyl-3-methyl-1H-pyrazole-5-carboxamido)-1H-benzo[d]imidazol-7-yl)oxy)prop-1-yn-1-yl)piperidine-1-carboxylate]",< 50
6,"CCn1nc(C)cc1C(=O)Nc1nc2cc(C(=O)NOC)cc(OC)c2n1C/C=C/Cn1c(NC(=O)c2cc(C)nn2CC)nc2cc(C(N)=O)cc(OCC#CC(C)(C)O)c21 [Example 33, (E)-1-(4-(5-carbamoyl-2-(1-ethyl-3-methyl-1H-pyrazole-5-carboxamido)-7-((4-hydroxy-4-methylpent-2-yn-1-yl)oxy)-1H-benzo[d]imidazol-1-yl)but-2-en-1-yl)-2-(1-ethyl-3-methyl-1H-pyrazole-5-carboxamido)-N,7-dimethoxy-1H-benzo[d]imidazole-5-carboxamide]",> 500
7,"CCn1nc(C)cc1C(=O)Nc1nc2cc(C(N)=O)cc(OC)c2n1C/C=C/Cn1c(NC(=O)c2cc(C)nn2CC)nc2cc(C(N)=O)cc(OCC#CC3CCN(C(=O)OCCN(C)C)CC3)c21 [Example 34, 2-(dimethylamino)ethyl (E)-4-(3-((5-carbamoyl-1-(4-(5-carbamoyl-2-(1-ethyl-3-methyl-1H-pyrazole-5-carboxamido)-7-methoxy-1H-benzo[d]imidazol-1-yl)but-2-en-1-yl)-2-(1-ethyl-3-methyl-1H-pyrazole-5-carboxamido)-1H-benzo[d]imidazol-7-yl)oxy)prop-1-yn-1-yl)piperidine-1-carboxylate]",< 50
8,"CCn1nc(C)cc1C(=O)Nc1nc2cc(C(=O)NOC)cc(OC)c2n1C/C=C/Cn1c(NC(=O)c2cc(C)nn2CC)nc2cc(C(N)=O)cc(OCC#CCN3CCN(C(=O)C(C)C)CC3)c21 [Example 39, (E)-1-(4-(5-carbamoyl-2-(1-ethyl-3-methyl-1H-pyrazole-5-carboxamido)-7-((4-(4-isobutyrylpiperazin-1-yl)but-2-yn-1-yl)oxy)-1H-benzo[d]imidazol-1-yl)but-2-en-1-yl)-2-(1-ethyl-3-methyl-1H-pyrazole-5-carboxamido)-N,7-dimethoxy-1H-benzo[d]imidazole-5-carboxamide]",> 500
9,"CCn1nc(C)cc1C(=O)Nc1nc2cc(C(N)=O)cc(OC)c2n1C/C=C/Cn1c(NC(=O)c2cc(C)nn2CC)nc2cc(C(N)=O)cc(OCC#CC(C)(C)N3CCN(C(=O)OC(C)(C)C)CC3)c21 [Example 41, tert-butyl (E)-4-(5-((5-carbamoyl-1-(4-(5-carbamoyl-2-(1-ethyl-3-methyl-1H-pyrazole-5-carboxamido)-7-methoxy-1H-benzo[d]imidazol-1-yl)but-2-en-1-yl)-2-(1-ethyl-3-methyl-1H-pyrazole-5-carboxamido)-1H-benzo[d]imidazol-7-yl)oxy)-2-methylpent-3-yn-2-yl)piperazine-1-carboxylate]",< 50
10,"CCn1nc(C)cc1C(=O)Nc1nc2cc(C(N)=O)cc(OC)c2n1C/C=C/Cn1c(NC(=O)c2cc(C)nn2CC)nc2cc(C(N)=O)cc(OCC#CCC3CCN(C(=O)OC(C)(C)C)CC3)c21 [Example 42, tert-butyl (E)-4-(4-((5-carbamoyl-1-(4-(5-carbamoyl-2-(1-ethyl-3-methyl-1H-pyrazole-5-carboxamido)-7-methoxy-1H-benzo[d]imidazol-1-yl)but-2-en-1-yl)-2-(1-ethyl-3-methyl-1H-pyrazole-5-carboxamido)-1H-benzo[d]imidazol-7-yl)oxy)but-2-yn-1-yl)piperidine-1-carboxylate]",< 50
